Assay results taken from patent US9521846B2, “Template-fixed peptidomimetics with antimicrobial activity” (priority 2006, dated 2016).
≈ marks a conversion by molar mass, not a printed value. Non-standard residues stand in square brackets, D forms with d. Residues, ends and D or L forms follow the SMILES beside them. Dab = NCC[C@H](N)C(=O)O

Legend:
P. aeruginosa ATCC 27853 = assay type: cell-based, Pseudomonas aeruginosa; details: ATCC 27853
Method in brief: (§1)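 Modified NCCLS broth microdilution; MH broth + 0.02% BSA; inoculum ~10^6 CFU/ml (0.5 McFarland); 1:1 with 2-fold serial peptide dilutions.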

[1] = system: Pseudomonas aeruginosa IMP 1 Livermore 3140; assay type: cell-based; details: IMP 1 Livermore 3140
Method in brief: as §1

[2] = system: Pseudomonas aeruginosa P1021903; assay type: cell-based; details: P1021903
Method in brief: as §1

[3] = system: Pseudomonas aeruginosa P1021913; assay type: cell-based; details: P1021913
Method in brief: as §1

[4] = system: Pseudomonas aeruginosa P8191900; assay type: cell-based; details: P8191900
Method in brief: as §1

HELA cells (Acc57) = assay: Cytotoxicity assay, MTT reduction (LC 50, GI 50); assay type: cell-based
Method in brief: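 Read-out was MTT reduction (A595) after 48 h peptide exposure (12.5–50 μM, triplicates) of HeLa cells plated at 7.0×10^3/well and precultured 24 h. Growth % was normalised to a time-zero reading. Linear trend interpolation gave the concentration at −50% growth (LC50) and at 50% growth (GI50).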

[5] = system: human red blood cells (hRBC); assay: Hemolysis; assay type: cell-based; details: 100
[6] = Plasma stability, human plasma; assay type: in vitro ADME
[7] = Plasma stability, rat plasma; assay type: in vitro ADME

CC[C@H](C)[C@@H]1NC(=O)[C@H](Cc2c[nH]c3ccccc23)NC(=O)[C@H](C)NC(=O)[C@@H]2CCCN2C(=O)[C@H]2CCCN2C(=O)[C@H](CCN)NC(=O)[C@H](C)NC(=O)[C@H](CCN)NC(=O)[C@H](CCN)NC(=O)[C@H](Cc2c[nH]c3ccccc23)NC(=O)[C@H](CCN)NC(=O)[C@H](CCN)NC(=O)[C@H](CCCCN)NC(=O)[C@H](CCN)NC1=O [Example 22] (cyclo(AWI[Dab]K[Dab][Dab]W[Dab][Dab]A[Dab][dP]P))
MIC P. aeruginosa ATCC 27853 (P. aeruginosa ATCC 27853): 0.02 µg/mL (≈ 0.0129 µM) | MIC P. aeruginosa IMP1 Livermore 3140 [1]: 0.24 µg/mL (≈ 0.155 µM) | MIC P. aeruginosa P1021903 [2]: 0.09 µg/mL (≈ 0.058 µM) | MIC P. aeruginosa P1021913 [3]: 0.16 µg/mL (≈ 0.103 µM) | MIC P. aeruginosa P8191900 [4]: 0.09 µg/mL (≈ 0.058 µM) | Cytotoxicity GI50 Hela cells (HELA cells (Acc57)): 50 µM | Hemolysis at 100 μg/ml [5]: 0.2% | Stability human Plasma t1/2 [6]: 300 min | Stability rat Plasma t1/2 [7]: 300 min | Average MIC (P. aeruginosa): 0.12 µg/mL
